Results reported in patent publication US10759751B2, “Substituted spirocyclohexanes as muscarinic M1 receptor and/or M4 receptor agonists” (Heptares Therapeutics Limited, priority 2016, dated 2020).
Like-named read-outs stand apart in the source and are kept apart here.

What was measured:
Type in all cases: cell-based
[1] = molecular target: T1, human muscarinic M2 receptor (Homo sapiens, UniProt P08172); test: Alphascreen Surefire phospho-ERK1/2 functional assay, M2; settings: for EC50: CHO cells stably expressing human M2, phospho-ERK1/2, read-out: pEC50 M2 (converted); for Emax: CHO, read-out: M2 % Emax cf. ACh
T1 sequence (P08172 1-466): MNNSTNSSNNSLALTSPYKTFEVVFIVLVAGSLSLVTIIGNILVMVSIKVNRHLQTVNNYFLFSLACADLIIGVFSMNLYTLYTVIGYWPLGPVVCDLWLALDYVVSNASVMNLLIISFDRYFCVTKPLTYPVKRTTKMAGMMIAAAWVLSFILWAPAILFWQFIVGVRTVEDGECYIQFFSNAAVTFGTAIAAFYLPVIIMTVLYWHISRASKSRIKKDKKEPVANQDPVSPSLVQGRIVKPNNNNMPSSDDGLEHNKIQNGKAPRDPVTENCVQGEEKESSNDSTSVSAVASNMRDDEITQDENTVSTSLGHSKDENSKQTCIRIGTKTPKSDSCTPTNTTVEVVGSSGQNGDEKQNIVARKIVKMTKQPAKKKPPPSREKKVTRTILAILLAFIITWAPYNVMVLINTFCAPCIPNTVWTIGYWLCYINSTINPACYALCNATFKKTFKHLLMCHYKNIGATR
Description: Functional assays were performed using the Alphascreen Surefire phospho-ERK1/2 assay (Crouch & Osmond, Comb. Chem. High Throughput Screen, 2008). ERK1/2 phosphorylation is a downstream consequence of both Gq/11 and Gi/o protein coupled receptor activation, making it highly suitable for the assessment of M1, M3 (Gq/11 coupled) and M2, M4 receptors (Gi/o coupled), rather than using different assay formats for different receptor subtypes. CHO cells stably expressing the human muscarinic M1, M2, M3 or M4 receptor were plated (25K/well) onto 96-well tissue culture plates in MEM-alpha+10% dialysed FBS. Once adhered, cells were serum-starved overnight. Agonist stimulation was performed by the addition of 5 μL agonist to the cells for 5 min (37° C.). Media was removed and 50 μL of lysis buffer added. After 15 min, a 4 μL sample was transferred to 384-well plate and 7 μL of detection mixture added. Plates were incubated for 2 h with gentle agitation in the dark and then read on a PHERAstar plate reader.
pEC50 and Emax figures were calculated from the resulting data for each receptor subtype.

[2] = molecular target: T2, human muscarinic M4 receptor (Homo sapiens, UniProt P08173); test: Alphascreen Surefire phospho-ERK1/2 functional assay, M4; settings: for EC50 / M4 % Emax cf. ACh: CHO cells stably expressing human M4; for EC50: phospho-ERK1/2, read-out: pEC50 M4 (converted); for Emax: CHO
T2 construct: expressed in transfected cells
T2 sequence (P08173 1-479): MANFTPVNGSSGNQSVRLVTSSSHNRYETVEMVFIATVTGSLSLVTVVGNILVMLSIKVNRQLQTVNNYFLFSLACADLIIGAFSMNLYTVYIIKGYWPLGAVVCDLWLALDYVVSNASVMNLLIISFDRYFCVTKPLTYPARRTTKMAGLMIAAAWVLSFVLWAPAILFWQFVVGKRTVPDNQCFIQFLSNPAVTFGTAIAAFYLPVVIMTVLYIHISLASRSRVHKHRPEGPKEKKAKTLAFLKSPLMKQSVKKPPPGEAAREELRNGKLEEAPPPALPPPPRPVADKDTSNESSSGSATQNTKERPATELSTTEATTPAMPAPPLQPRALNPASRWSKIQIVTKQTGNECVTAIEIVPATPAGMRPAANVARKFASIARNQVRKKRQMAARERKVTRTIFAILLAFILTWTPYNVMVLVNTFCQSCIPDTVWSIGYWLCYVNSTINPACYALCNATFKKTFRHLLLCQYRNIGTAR
In short: (§1)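 Agonist-induced phospho-ERK1/2 is measured in serum-starved CHO cells carrying the human receptor, with a 5 min stimulation at 37 °C. AlphaScreen SureFire quantifies the signal, from which pEC50 and Emax are obtained.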

[3] = molecular target: T3, human muscarinic M3 receptor (Homo sapiens, UniProt P20309); test: Alphascreen Surefire phospho-ERK1/2 functional assay, M3; settings: for EC50: CHO cells stably expressing human M3, phospho-ERK1/2, read-out: pEC50 M3 (converted); for Emax: CHO, read-out: M3 % Emax cf. ACh
T3 construct: expressed in transfected cells
In short: as §1

[4] = molecular target: T4, human muscarinic M1 receptor (Homo sapiens, UniProt P11229); test: Alphascreen Surefire phospho-ERK1/2 functional assay, M1; settings: for EC50 / M1 % Emax cf. ACh: CHO cells stably expressing human M1; for EC50: phospho-ERK1/2, read-out: pEC50 M1 (converted); for Emax: CHO
T4 sequence (P11229 1-460): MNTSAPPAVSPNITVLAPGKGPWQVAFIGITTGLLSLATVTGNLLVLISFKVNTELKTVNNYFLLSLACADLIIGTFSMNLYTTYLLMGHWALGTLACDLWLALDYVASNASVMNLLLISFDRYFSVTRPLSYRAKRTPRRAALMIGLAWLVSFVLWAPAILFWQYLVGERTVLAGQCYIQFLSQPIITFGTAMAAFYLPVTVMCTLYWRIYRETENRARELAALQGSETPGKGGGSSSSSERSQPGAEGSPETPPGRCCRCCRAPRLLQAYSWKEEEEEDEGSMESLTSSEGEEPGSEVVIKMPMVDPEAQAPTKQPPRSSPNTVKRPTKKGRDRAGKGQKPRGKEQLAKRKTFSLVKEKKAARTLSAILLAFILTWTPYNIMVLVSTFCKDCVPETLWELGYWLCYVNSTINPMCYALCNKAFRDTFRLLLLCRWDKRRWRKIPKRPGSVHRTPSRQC
In short: as §1

[5] = read-out: M4 % Emax cf. ACh, CHO cells stably expressing human M4, Emax relative to ACh
[6] = read-out: M1 % Emax cf. ACh, CHO cells stably expressing human M1, Emax relative to ACh

T3 sequence (P20309 whole entry): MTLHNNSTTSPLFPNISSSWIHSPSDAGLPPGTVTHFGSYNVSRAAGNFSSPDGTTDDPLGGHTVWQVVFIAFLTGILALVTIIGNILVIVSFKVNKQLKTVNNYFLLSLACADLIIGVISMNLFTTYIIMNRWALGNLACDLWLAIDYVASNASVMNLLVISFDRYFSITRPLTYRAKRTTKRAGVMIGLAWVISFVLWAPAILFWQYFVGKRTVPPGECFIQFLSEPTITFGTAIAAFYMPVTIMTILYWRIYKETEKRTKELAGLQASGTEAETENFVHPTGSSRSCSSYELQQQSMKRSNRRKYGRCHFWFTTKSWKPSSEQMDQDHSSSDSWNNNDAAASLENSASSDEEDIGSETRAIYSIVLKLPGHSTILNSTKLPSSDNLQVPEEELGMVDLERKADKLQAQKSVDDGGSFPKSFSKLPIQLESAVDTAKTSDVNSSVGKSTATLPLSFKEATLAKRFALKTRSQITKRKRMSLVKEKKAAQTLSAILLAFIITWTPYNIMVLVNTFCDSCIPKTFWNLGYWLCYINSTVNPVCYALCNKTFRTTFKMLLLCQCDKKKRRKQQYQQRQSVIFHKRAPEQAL

EC50 [1]	Emax [1]	EC50 [2]	Emax [2, 5]	EC50 [3]	Emax [3]	EC50 [4]	Emax [4, 6]	M4 % Emax cf. ACh ([2]; Emax relative to ACh)	M1 % Emax cf. ACh ([4]; Emax relative to ACh)	SMILES	Emax ([2]; read-out: M4 % Emax cf. ACh)	Emax ([4]; read-out: M1 % Emax cf. ACh)
> 20000 nM	2%	759 nM	30%	> 20000 nM	0%	22.4 nM	106%	–	–	CC#CCOC(=O)N1CCCN(C2CCC(C#N)(c3ccc(OC)cn3)CC2)CC1 (single isomer, unassigned) [3-32 Isomer 1]	–	–
> 20000 nM	3%	> 20000 nM	20%	> 20000 nM	2%	794 nM	57%	–	–	CCCC(=O)N1CCCN(C2CCC3(CC2)C(=O)Nc2ccccc23)CC1 (single isomer, unassigned) [4-3 isomer 2]	–	–
> 15800 nM	39%	75.9 nM	–	> 15800 nM	17%	36.3 nM	–	116%	130%	CCOC(=O)N1CCCN(C2CCC3(CC2)C(=O)Nc2cc(C)ccc23)CC1 (single isomer, unassigned) [4-6 isomer 2]	–	–
> 20000 nM	16%	5370 nM	100%	> 20000 nM	20%	44.7 nM	115%	–	–	CCOC(=O)N1CCCN(C2CCC3(CC2)C(=O)Nc2ccc(C)cc23)CC1 (single isomer, unassigned) [4-7 isomer 1]	–	–
> 20000 nM	17%	97.7 nM	–	> 20000 nM	9%	204 nM	–	95%	97%	CCOC(=O)N1CCCN(C2CCC3(CC2)C(=O)Nc2cccc(C)c23)CC1 (single isomer, unassigned) [4-8 isomer 2]	–	–
> 20000 nM	9%	309 nM	55%	> 20000 nM	2%	132 nM	107%	–	–	CCOC(=O)N1CCCN(C2CCC3(CC2)C(=O)Nc2cc(OC)ccc23)CC1 (single isomer, unassigned) [4-11 isomer 2]	–	–
> 20000 nM	3%	> 20000 nM	10%	> 20000 nM	34%	89.1 nM	107%	–	–	CCOC(=O)N1CCCN(C2CCC3(CC2)C(=O)Nc2ccc(OC)cc23)CC1 (single isomer, unassigned) [4-12 isomer 1]	–	–
> 20000 nM	8%	513 nM	26%	> 20000 nM	7%	66.1 nM	115%	–	–	CCOC(=O)N1CCCN(C2CCC(c3nc(CC)c(C)[nH]3)CC2)CC1 (single isomer, unassigned) [5-1 Isomer 2]	–	–
> 20000 nM	0%	53.7 nM	49%	> 20000 nM	12%	58.9 nM	129%	–	–	CCOC(=O)NCC1CCN(C2CCC(C#N)(c3ccccc3)CC2)CC1 (single isomer, unassigned) [6-2-Isomer 2]	–	–
> 20000 nM	37%	170 nM	–	> 20000 nM	3%	75.9 nM	–	32%	122%	CCOC(=O)NCC1CCN(C2CCC3(CC2)C(=O)Nc2ccccc23)CC1 (single isomer, unassigned) [7-2 isomer 1]	–	–
> 20000 nM	1%	> 20000 nM	19%	> 20000 nM	3%	275 nM	105%	–	–	CCOC(=O)N1CC2(CCN(C3CCC(C#N)(c4ccccc4)CC3)CC2)C1 (single isomer, unassigned) [11-1 Isomer 2]	–	–
> 20000 nM	18%	4.79 nM	82%	> 20000 nM	1%	13.8 nM	109%	–	–	CCOC(=O)N1CCC2(CCN(C3CCC4(CC3)C(=O)Nc3ccccc34)CC2)C1 (single isomer, unassigned) [12-1 isomer 1]	–	–
> 20000 nM	27%	10.7 nM	48%	> 20000 nM	0%	25.7 nM	65%	–	–	CCOC(=O)N1CCC2(CCN(C3CCC4(CC3)C(=O)N(C(=O)OCC)c3ccccc34)CC2)C1 (single isomer, unassigned) [12-2 isomer 1]	–	–
> 20000 nM	14%	145 nM	21%	> 20000 nM	6%	155 nM	117%	–	–	CCOC(=O)N1CCC2CN(C3CCC(C#N)(c4ccccc4)CC3)CC21 (single isomer, unassigned) [15-1 Isomer 2]	–	–
> 20000 nM	9%	251 nM	61%	> 20000 nM	9%	97.7 nM	111%	–	–	CCOC(=O)N1CC2CN(C3CCC(C#N)(c4ccccc4)CC3)CCC21 (single isomer, unassigned) [17-1 Isomer 2]	–	–
> 20000 nM	21%	224 nM	83%	> 20000 nM	8%	1740 nM	45%	–	–	Cc1noc([C@H]2CC[C@@H](NC3CCC(C#N)(c4ccccn4)CC3)C2)n1 (single isomer, unassigned) [19-1 Isomer 2]	–	–
2400 nM	35%	138 nM	96%	> 20000 nM	5%	191 nM	118%	–	–	CCc1noc([C@H]2CC[C@@H](NC3CCC(C#N)(c4ccccc4)CC3)C2)n1 (single isomer, unassigned) [19-2 Isomer 2]	–	–

SMILES	EC50 [1]	Emax [1]	EC50 [2]	Emax [2, 5]	EC50 [3]	Emax [3]	EC50 [4]	Emax [4, 6]	M4 % Emax cf. ACh ([2]; Emax relative to ACh)	M1 % Emax cf. ACh ([4]; Emax relative to ACh)	Emax ([2]; read-out: M4 % Emax cf. ACh)	Emax ([4]; read-out: M1 % Emax cf. ACh)
CCOC(=O)N1CCC2(CCN(C3CCC(C#N)(c4ccccc4)CC3)CC2)C1 (single isomer, unassigned) [13-1 Isomer 2]	> 20000 nM	21%	0.145 nM	–	> 20000 nM	7%	0.447 nM	–	–	–	121%	121%
